# Results published in patent US20130011845A1, “MICRORNA REGULATING THE INSULIN SIGNALING PATHWAY, AND METHOD FOR SCREENING MATERIAL FOR CONTROLLING THE ACTION OF A TARGET THEREOF” (SNU R & DB Foundation, priority 2009, published 2013).
# Columns and labels:
# ERBB2IP 3′UTR = assay: dual-luciferase 3′UTR reporter assay, pAC-ERBB2IP; assay type: cell-based; details: luciferase reporter with ERBB2IP 3′UTR, human Hela cell lines; average of at least two independent experiments
# Method: (§1) In order to determine whether the target genes identified in Example 7 are in actuality targets of miR-8 and miR-200 family miRNAs, the inventors performed cloning. In other words, […] containing the miRNA target sites. Specifically, in order to obtain cDNAs of respective target genes, from drosophila S2 cell lines or human Hela cell lines, total RNA was extracted by using RNeasy mini kit (QIAGEN, US). 1 μg of total RNA and 1 μl of Oligo-dT (Invitrogen, US) were charged with up to 50 μl of distilled water, and placed into SuperScript First-Strand Synthesis System (Invitrogen, US), followed by RT-PCR reaction. Through the reaction at 65° C. for 6 min, at 4° C. for 5 min, at 42° C. for 60 min, at 95° C. for 5 min, and at 4° C. for 5 min, cDNA was synthesized. By using the cDNA (3˜5 μg) as template, and using a primer pair on respective genes noted in Table 3 and PCR Mastermix (Promega, US), PCR was performed on 3′UTR of ush, Lap1, CG8445, dbo, Lar, Ced-12, CG12333, cbt, FOG2, SEPT7, RIN2, SHC1, HOXB5, LF11, TCF7L1, ERBB21P, ELMO2, BAP1, WDR37, KLHL20, PTPRD, RASSF2 and VAC14 from among the target genes selected in Example 7. Herein, PCRP on atro as a drosophila control gene was also performed. After the reaction was completed, the PCR product on each gene's 3′UTR region was cleaved by each of the following restriction enzymes:
# (§2) Then, it was cloned into pAC5.1 luciferase vector (a kind gift of Elisa Izaurralde) cleaved by the same restriction enzymes so as to produce a reporter plasmid having a miR-8 or miR-200 family target sequence in luciferase gene's 3′UTR sequence.
# (§3) Reporter plasmids and renilla luciferase expression vectors (Promega, US), as noted in Table 4, and miRNAs of miR-200 family of miR-141, miR-200a (hsa-miR-200a, SEQ ID: 87: 5′-[…]-3′), miR-200b, miR-200c (has-miR-200c, SEQ ID: 88: 5′-[…]-3′) and miR-429, and miR-8 (dme-miR-8, SEQ ID: 89: 5′-[…]-3′) were bought from Samchonri and cotransfected into drosophila S2 cell lines or human Hela cell lines. Then, the activities of luciferase were measured through dual-luciferase assay (Promega, US) by a luminometer (Biorad). Then, 7 gene pairs that respond both to miR-8 and to mir-200 family miRNAs in Drosophila and human cells, respectively were identified (see FIG. 15).
# BAP1 3′UTR = assay: dual-luciferase 3′UTR reporter assay, pAC-BAP1; assay type: cell-based; details: luciferase reporter with BAP1 3′UTR, human Hela cell lines; average of at least two independent experiments
# Method: as §1, §2, §3
# KLHL20 3′UTR = assay: dual-luciferase 3′UTR reporter assay, pAC-KLHL20; assay type: cell-based; details: luciferase reporter with KLHL20 3′UTR, human Hela cell lines; average of at least two independent experiments
# Method: as §1, §2, §3
# PTPRD 3′UTR = assay: dual-luciferase 3′UTR reporter assay, pAC-PTPRD; assay type: cell-based; details: luciferase reporter with PTPRD 3′UTR, human Hela cell lines; average of at least two independent experiments
# Method: as §1, §2, §3
# WDR37 3′UTR = assay: dual-luciferase 3′UTR reporter assay, pAC-WDR37; assay type: cell-based; details: luciferase reporter with WDR37 3′UTR, human Hela cell lines; average of at least two independent experiments
# Method: as §1, §2, §3
# KLF11 3′UTR = assay: dual-luciferase 3′UTR reporter assay, pAC-KLF11; assay type: cell-based; details: luciferase reporter with KLF11 3′UTR, human Hela cell lines; average of at least two independent experiments
# Method: as §1, §2, §3
# TCF7L1 3′UTR = assay: dual-luciferase 3′UTR reporter assay, pAC-TCF7L1; assay type: cell-based; details: luciferase reporter with TCF7L1 3′UTR, human Hela cell lines; average of at least two independent experiments
# Method: as §1, §2, §3
# SEPT7 3′UTR = assay: dual-luciferase 3′UTR reporter assay, pAC-SEPT7; assay type: cell-based; details: luciferase reporter with SEPT7 3′UTR, human Hela cell lines; average of at least two independent experiments
# Method: as §1, §2, §3
# SHC1 3′UTR = assay: dual-luciferase 3′UTR reporter assay, pAC-SHC1; assay type: cell-based; details: luciferase reporter with SHC1 3′UTR, human Hela cell lines; average of at least two independent experiments
# Method: as §1, §2, §3
# Hep3B cells = assay: MTT cellular viability assay; assay type: cell-based, human; details: Hep3B cells transfected with 30 nM
# Method: Because stimulation of PI3K and Akt is known to facilitate cell proliferation and antagonize apoptosis (Pollak, 2008), the inventors measured cellular viability with the MTT (3-(4,5-dimethylthiazol-2-yl)-2,5-diphenyltetrazolium bromide) assay in Hep3B cells. Specifically, Hep3B cells were plated in a 96-well plate, and transfected with 30 nM of synthesized siGFP, miR-141, miR-200a, miR-200b, miR-200c, miR-429 or siFOG2. Then, to the plate, 50 μl of MTT solution (2 mg/ml) (Promega, US) was added per each well, followed by culturing at 37 °C for 1 hour. Then, each well was added with 150 μl of DMSO, and measured by a microplate reader (Bio-rad, US) at a wavelength of 590 nm. Also, Hep3B cells were transfected with 200 nM of luciferase, or 200 nM of oligonucleotides having complementary sequences to miR-141, miR-200a, miR-200b, miR-200c or miR-429, and then were subjected to MTT assay in the same manner as described above.
# MCF-7 cell lines = assay: cell proliferation by counting the number of cells; assay type: cell-based, human; details: MCF-7 cell lines transduced; counted on day 1, 4, 5, 6, 7 and 8; compared to untreated or siGFP cells
# Description: It has been known that when human miRNAs, that is, miR-200 family (miR-200a, miR-200b, miR-200c, miR-141, and miR-429) are transduced into human cell lines, cell growth is promoted (Park, S Y et al., 2009, Nat Struct Mol Biol 16, 23-29). In MCF-7 cell lines not treated with anything, and MCF-7 cell lines transduced with siRNA targeting GFP (siGFP, SEQ ID: 1: 5′-UGAAUUAGAUGGCGAUGUU-3′, Samchonri), miR-200 family [miR-141(has-miR-141, SEQ ID: 2: 5′-[…]-3′), miR-200b (has-miR-200b, SEQ ID: 3: 5′-[…]-3′), miR-429(has-miR-429, SEQ ID: 4: 5′-[…]-3′)] and miR-29b (known to inhibit cell proliferation), on day 1, 4, 5, 6, 7 and 8, the inventors counted the number of cells and measured cell proliferation.
Substance,"Represion fold, ERBB2IP (ERBB2IP 3′UTR) [fold]","Represion fold, BAP1 (BAP1 3′UTR) [fold]","Represion fold, KLHL20 (KLHL20 3′UTR) [fold]","Represion fold, PTPRD (PTPRD 3′UTR) [fold]","Represion fold, WDR37 (WDR37 3′UTR) [fold]","Represion fold, KLF11 (KLF11 3′UTR) [fold]","Represion fold, TCF7L1 (TCF7L1 3′UTR) [fold]","Represion fold, SEPT7 (SEPT7 3′UTR) [fold]","Represion fold, SHC1 (SHC1 3′UTR) [fold]",cell viability (MTT) (Hep3B cells),cell proliferation (number of cells) (MCF-7 cell lines)
"5′-UAACACUGUCUGGUAACGAUGU-3′ (listed as RNA, chemistry not given here) [miR-200a]",1.18,1.04,1.02,1.25,0.76,1.20,1.17,0.97,1.63,increased cell viability,–
"5′-UAAUACUGUCUGGUAAAACCGU-3′ (listed as RNA, chemistry not given here) [miR-429]",0.54,0.67,0.55,0.75,1.31,1.07,0.71,1.14,2.17,increased cell viability,increased cell proliferation
"5′-UAAUACUGCCUGGUAAUGAUGA-3′ (listed as RNA, chemistry not given here) [miR-200b]",0.57,0.79,0.85,0.89,1.16,1.02,0.81,0.95,1.41,increased cell viability,increased cell proliferation
"5′-UAACACUGUCUGGUAAAGAUGG-3′ (listed as RNA, chemistry not given here) [miR-141]",0.7,0.84,0.84,0.89,1.07,1.03,0.91,1.00,1.64,increased cell viability,increased cell proliferation
